“Also recorded” adds a separate entry of the source. Read-outs that look alike come from different tables or passages of the source.
Tests used:
[1] = tested on: PMNs isolated from septic shock patients with secondary infection; assay: Chemotaxis to 100 nM fMLF of PMNs from septic shock patients with secondary infection exposed to their own plasma; assay type: cell-based, human; details: 50 pg/mL recombinant LTB4 added to bead-anti-mtFP mixture treated plasma, 90 minutes
[2] = tested on: human polymorphonuclear cells (PMN); details: previous studies of the inventors; cited from earlier work
FPR1 = FPR1 expression on PMN membranes by flow cytometry; assay type: cell-based, human; details: 100 nM ND6 for 30 minutes
Procedure: FPR1 expression on PMN membranes and the amount of CaMK2 in the homogenized PMN pellet were also detected by flow cytometry. In order to detect FPR1 on PMN membranes, PMNs (1.0×10^6 in 200 μL) were incubated with FITC-conjugated anti-human FPR1 antibody (2 μL, FAB3744F, R&D Systems, Minneapolis, MN) for 30 minutes at room temperature in the dark. FITC-conjugated mouse IgG2a, κ isotype control antibody (400210, BioLegend, San Diego, CA) was used as a negative control. After washing twice, fluorescence was measured. APC-conjugated anti-CaMK2 antibody (2 μL, ab225178, Abcam, Cambridge, UK) was used to detect the amount of CaMK2 in 200 μL of homogenized PMN pellet obtained by homogenization of 1.0×10^6/l mL PMN for 30 seconds at 4° C. and centrifugation at 20,000 g for 10 minutes. FPR1 expression in PMN membranes and the amount of CaMK2 in homogenized PMN pellets were quantified as mean fluorescence intensity (MFI) by using FlowJo version 10.0 (FlowJo, LLC, Ashland, OR). At least three independent experiments were performed.

[3] = tested on: human polymorphonuclear cells (PMN)
Procedure: PMN chemotaxis was assessed by using multiScreen 96-well plates consisting of a 3-μm pore membrane (MAMIC3S10, Merck Millipore, Darmstadt, Germany). After preplanned treatment with ND6 or patient plasma, isolated human PMNs were centrifuged at 200 g for 10 minutes at 4° C. Afterwards, the PMN pellet was resuspended in Dulbecco's modified Eagle medium (DMEM, 11885-084, Thermo Fisher) containing 10% fetal bovine serum (FBS, F2442, Sigma-Aldrich). Before use, FBS was inactivated by heating at 56° C. for 1 hour. PMNs were placed in the upper chamber of the plate (0.1×10^6 PMNs at 75 μL per well), and medium containing 100 nM fMLF was placed in the lower chamber (150 μL per well). In medium without ND6 or fMLF, 0.1% DMSO was added.
Plates were incubated for 60 minutes in an incubator at 37° C. with 5% carbon dioxide (CO2). […] Afterwards, the contents were transferred to a 96-well plate, and fluorescence was measured at an excitation/emission wavelength of 480/520 nm with a cut-off of 515 nm. The number of migrated PMNs was calculated by using a standard curve derived from known PMN numbers. […]
After exposure to 100 nM ND6 for 30 minutes, PMNs were centrifuged at 220 g for 10 minutes at 4° C., and the supernatant was discarded. […] PMN chemotaxis at 30 and 90 minutes was measured as the number of PMNs migrated during 60-minute incubation between 30 and 90 minutes and 90 and 150 minutes, respectively.

[4] = target: T1, formyl peptide receptor 1 (FPR1) (Homo sapiens, UniProt P21462); assay: PMN intracellular calcium mobilization (ER calcium depletion and calcium influx, fura2-AM)
T1 sequence (P21462 1-350): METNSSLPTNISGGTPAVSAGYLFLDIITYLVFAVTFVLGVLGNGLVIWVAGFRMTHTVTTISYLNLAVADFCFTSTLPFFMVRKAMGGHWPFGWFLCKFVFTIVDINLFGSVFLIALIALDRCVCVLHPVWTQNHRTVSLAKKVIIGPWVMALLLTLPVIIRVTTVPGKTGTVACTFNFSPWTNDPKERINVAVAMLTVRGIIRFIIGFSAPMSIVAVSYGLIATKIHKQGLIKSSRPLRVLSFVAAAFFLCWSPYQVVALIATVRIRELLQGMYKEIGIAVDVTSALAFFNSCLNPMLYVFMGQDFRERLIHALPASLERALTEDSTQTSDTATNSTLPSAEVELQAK
Procedure: Calcium mobilization within PMN cells was measured according to the following method. The separated PMN pellet was resuspended in pH 7.4 hydroxyethyl piperazine ethane sulfonic acid (HEPES) buffer solution. This HEPES buffer solution includes 20 mM HEPES, 140 mM NaCl, 5 mM potassium chloride (KCl), 1 mM magnesium chloride (MgCl2), 1 mM calcium chloride (CaCl2)), 10 mM glucose and 0.1% bovine serum albumin (BSA, A2058 Sigma-Aldrich). PMNs were loaded with fura2-AM (F1221, Thermo Fisher, Waltham, MA) for 45 minutes at 37° C.
Fluorescence was measured at 505 nm with 340/380 nm dual-wavelength excitation at 37° C. by using a spectrofluorometer (FluoroMax Plus-C, Horiba, Ltd., Kyoto, Japan). For the quantitative measurement of endoplasmic reticulum (ER) calcium depletion, PMNs were centrifuged at 200 g for 10 minutes at 4° C. PMN pellets were then resuspended in a calcium-free HEPES buffer solution including 0.3 mM ethylene glycol-bis(2-aminoethylether)-N,N,N′,N′-tetraacetic acid (EGTA, E3889, Sigma-Aldrich, St. Louis, MO), and stimulated with ND6 and fMLF or with ND6 alone. 0.1% dimethyl sulfoxide (DMSO) was added to the medium without ND6 or fMLF. After endoplasmic reticulum calcium was depleted, 1.8 mM CaCl2) was added to induce cytoplasmic calcium influx. Endoplasmic reticulum calcium depletion and calcium influx were assessed by measuring the 340 nm/380 nm ratio and quantified as AUC over 150 seconds (AUC150) and AUC over 100 seconds (AUC100), respectively. […]
In order to investigate which steps of intracellular calcium mobilization stimulated by FPR1 agonists directly correlate with PMN chemotaxis, the inventors of the present disclosure quantitatively measured the amounts of endoplasmic reticulum (ER) calcium depletion and subsequent calcium influx into the cytoplasm in isolated human PMNs obtained from healthy volunteers. […] The area under the curve (AUC) of ER calcium depletion over 150 seconds was calculated to quantify the amount of ER calcium depletion stimulated by ND6 (AUC150 primary) and fMLF (AUC150 secondary), respectively. […]

[5] = tested on: PMNs isolated from healthy volunteers; assay: Chemotaxis to 100 nM fMLF of healthy volunteer PMNs exposed to septic shock patient plasma; assay type: cell-based, human; details: 10 μM CsH
Procedure: The effect of bead-anti-mtFP mixture treatment on PMN chemotaxis rescue was analyzed. PMS was isolated from blood samples obtained from healthy volunteers and exposed to untreated plasma from septic shock patients for 30 minutes in a 10-rpm rotator at 37° C. […] In order to estimate the capacity of non-FPR1-mediated PMN chemotaxis, separate PMNs exposed to bead anti-mtFP mixture-treated plasma were pretreated with 10 μM CsH 15 minutes prior to the chemotaxis experiment.
The inventors of the present disclosure investigated the chemotactic restoration effect of the anti-mtFP cocktail on PMNs by exposing PMNs from healthy volunteers to the plasma of septic shock patients treated with the anti-mtFP cocktail and then comparing PMN chemotaxis with plasma that had not received the anti-mtFP cocktail treatment.

Molecule: CCCCC/C=C\C[C@@H](O)/C=C/C=C/C=C\[C@@H](O)CCCC(=O)O [recombinant LTB4, leukotriene B4]
- restoration of PMN chemotaxis compared to PMN exposed to untreated plasma [1]: effectively restored PMN chemotaxis
- restoration of PMN chemotaxis compared to PMN exposed to untreated plasma ([1]; listed as recombinant leukotriene B4 (LTB4)): significantly restored PMN chemotaxis

Molecule: N-formyl-methionine-leucine-phenylalanine [fMLF]
- most potent concentration to induce FPR1-mediated PMN chemotaxis [2]: 100 nM

Molecule: N-formyl-methionine-methionine-tyrosine-alanine-leucine-phenylalanine [ND6]
- FPR1 expression in PMN membranes (MFI) (FPR1): reduced FPR1 expression
- PMN chemotaxis in response to 100 nM fMLF ([3]; 100 nM ND6 for 30 minutes): inhibited
- PMN chemotaxis in response to 100 nM fMLF ([3]; ND6-treated PMNs, 100, 10, 5 nM): dose-dependently inhibited
- ER calcium depletion and calcium influx in response to 100 nM fMLF ([4]; 100 nM ND6 for 30 minutes or more): inhibited; also recorded: did not completely inhibit
- inhibition of fMLF-stimulated secondary ER calcium depletion and subsequent calcium influx ([4]; 100 nM, 10 nM, 5 nM ND6, then 100 nM fMLF): dose-dependently inhibited

Molecule: C/C=C/C[C@@H](C)[C@@H](O)[C@H]1C(=O)N[C@@H](CC)C(=O)N(C)CC(=O)N(C)[C@@H](CC(C)C)C(=O)N[C@@H](C(C)C)C(=O)N(C)[C@@H](CC(C)C)C(=O)N[C@@H](C)C(=O)N[C@H](C)C(=O)N(C)[C@@H](CC(C)C)C(=O)N(C)[C@@H](CC(C)C)C(=O)N(C)[C@H](C(C)C)C(=O)N1C [CsH, cyclosporine H]
- chemotaxis of CsH-treated PMNs versus CsH-free PMNs exposed to untreated plasma [5]: not significantly different
